The structures appear in SMILES notation.

One may read the IC50 as the concentration at which inhibition is half-maximal.

The first experiment concerns the target recombinant SARS-CoV-2 M^pro (Severe acute respiratory syndrome coronavirus 2 (2019-nCoV) (SARS-CoV-2), UniProt P0DTD1). The experiment can be described thus: Inhibition of SARS-CoV-2 M^pro enzyme activity (fluorescent substrate assay). The note with it: inhibition of SARS-CoV-2 M^pro enzyme activity; values given in μM; read-out: IC50. The experiment is classed as biochemical.
For the compound `CC(C)(C)[C@H](NC(=O)C(F)(F)F)C(=O)N[C@H](Cc1ccccc1)C(=O)C(=O)NCc1ccccn1` [Compound 245], the IC50 is more than 5 µM.

The same experiment, now with this note: inhibition of SARS-CoV-2 M^pro enzyme activity; values in nM; read-out: IC50.
On to `C=C[C@@H]1C[C@]1(NC(=O)C1CCC(F)(F)CC1)C(=O)N[C@H](Cc1ccccc1)C(=O)C(=O)NCc1ccccn1` [Compound 229], for which the 50% inhibitory concentration (IC50) amounted to 0.0338 ± 0.001 µM.

As to `O=C(NCc1ccccn1)C(=O)[C@@H](Cc1ccccc1)NC(=O)[C@H](NC(=O)C1CCC(F)(F)CC1)C1CCOCC1` [Compound 230], the IC50 was found to be 0.0645 ± 0.0007 µM.

Take `C#CCC(NC(=O)C1CCC(F)(F)CC1)C(=O)N[C@H](Cc1ccccc1)C(=O)C(=O)NCc1ccccn1` (some centres unmarked) [Compound 231]: the IC50 was 0.0354 ± 0.0002 µM.

In the case of `CN(C)CC(NC(=O)C1CCC(F)(F)CC1)C(=O)N[C@H](Cc1ccccc1)C(=O)C(=O)NCc1ccccn1` (some centres unmarked) [Compound 232], the IC50 was found to be 0.0607 ± 0.0001 µM.

Take `O=C(NCc1ccccn1)C(=O)[C@@H](Cc1ccccc1)NC(=O)[C@@]1(NC(=O)C2CCC(F)(F)CC2)C[C@H]1C(F)F` [Compound 233]: the IC50 was found to be 0.0103 ± 0.0003 µM.

Regarding `O=C(NCc1ccccn1)C(=O)[C@@H](Cc1ccccc1)NC(=O)C1(NC(=O)C2CCC(F)(F)CC2)COC1` [Compound 234], the 50% inhibitory concentration (IC50) came to 0.0188 ± 0.0027 µM.

With `O=C(NCc1ccccn1)C(=O)[C@@H](Cc1ccccc1)NC(=O)C1(NC(=O)[C@@H]2C[C@@H]3[C@H](C2)C3(F)F)CC(F)(F)C1` [Compound 235], the IC50 is 0.0286 ± 0.0021 µM.

In the case of `O=C(CC1CCC(F)(F)CC1)N[C@H](CC1CCCCC1)C(=O)N[C@H](Cc1ccccc1)C(=O)C(=O)NCc1ccccn1` [Compound 236], the IC50 was found to be 0.0414 ± 0.0001 µM.

For the compound `CC(C)(C)C(NC(=O)C1CCC(F)(F)CC1)C(=O)N[C@H](Cc1ccccc1)C(=O)C(=O)NCc1ccccn1` (some centres unmarked) [Compound 237], the IC50 stood at 0.132 ± 0.0044 µM.

Consider `O=C(NCc1ccccn1)C(=O)[C@@H](Cc1ccccc1)NC(=O)C1(NC(=O)C2CCC(F)(F)CC2)CCCC1` [Compound 239], for which the IC50 worked out at 0.0322 ± 0.001 µM.

As for `CC(C)(O)[C@@H](NC(=O)C1CCC(F)(F)CC1)C(=O)N[C@H](Cc1ccccc1)C(=O)C(=O)NCc1ccccn1` [Compound 241], the IC50 stood at 0.0421 ± 0.0016 µM.

On to `CC(C)[C@@H](NC(=O)C1CCC(F)(F)CC1)C(=O)N[C@H](Cc1ccccc1)C(=O)C(=O)NCc1ccccn1` [Compound 242], for which the IC50 is 0.0268 ± 0.0018 µM.

Take `O=C(NCc1ccccn1)C(=O)[C@@H](Cc1ccccc1)NC(=O)C1(NC(=O)C2CCC(F)(F)CC2)Cc2ccccc2C1` [Compound 243]: the IC50 was found to be 0.0184 ± 0.0001 µM.

Consider `O=C(CC1CCC(F)(F)CC1)NC1(C(=O)N[C@H](Cc2ccccc2)C(=O)C(=O)NCc2ccccn2)Cc2ccccc2C1` [Compound 244], for which the IC50 worked out at 0.0151 ± 0.0001 µM.

Take `CC[C@@H](NC(=O)c1ccc(F)cc1)C(=O)N[C@H](Cc1ccccc1)C(=O)C(=O)NCc1ccccn1` [Compound 246]: the IC50 was found to be 0.0236 ± 0.0003 µM.

Turning to `CC(C)[C@@H](NC(=O)c1ccc(F)cc1)C(=O)N[C@H](Cc1ccccc1)C(=O)C(=O)NCc1ccccn1` [Compound 247], the concentration for half-maximal inhibition (IC50) was 0.0382 ± 0.0028 µM.

With `O=C(NCc1ccccn1)C(=O)[C@@H](Cc1ccccc1)NC(=O)C1(NC(=O)c2ccc(F)cc2)CCCC1` [Compound 248], the IC50 was found to be 0.0246 ± 0.0006 µM.

For the compound `O=C(NCc1ccccn1)C(=O)[C@@H](Cc1ccccc1)NC(=O)C(NC(=O)c1ccc(F)cc1)C(F)(F)F` (some centres unmarked) [Compound 249], the IC50 was 0.256 ± 0.0064 µM.

Consider `O=C(NCc1ccccn1)C(=O)[C@@H](Cc1ccccc1)NC(=O)[C@H](NC(=O)c1ccc(F)cc1)C1CC1` [Compound 250], for which the IC50 was determined as 0.0424 ± 0.0024 µM.

For the compound `CC[C@@H](C)C(NC(=O)c1ccc(F)cc1)C(=O)N[C@H](Cc1ccccc1)C(=O)C(=O)NCc1ccccn1` (some centres unmarked) [Compound 251], the IC50 was found to be 0.0342 ± 0.0005 µM.

In the case of `CC(C)(C)C(NC(=O)c1ccc(F)cc1)C(=O)N[C@H](Cc1ccccc1)C(=O)C(=O)NCc1ccccn1` (some centres unmarked) [Compound 252], the IC50 was 0.0949 ± 0.0027 µM.

Take `COC[C@@H](NC(=O)c1ccc(F)cc1)C(=O)N[C@H](Cc1ccccc1)C(=O)C(=O)NCc1ccccn1` [Compound 253]: the IC50 was determined as 0.0224 ± 0.0014 µM.

The values above are taken from patent publication US20250064789A1, “KETOAMIDE DERIVATIVES AND PHARMACEUTICAL USES THEREOF” (priority 2022, published 2025).
